pIC50: −log10 of the molar value. Where two headings read alike, the source gives them in different places.
How the values were obtained:
HDAC1 = HDAC1 (Homo sapiens, UniProt Q13547); assay: HDAC enzyme inhibitory activity, FRET method; format: biochemical; details: read-out: IC50 HDAC1
Protocol: (§3) The compounds of the present disclosure were assayed for enzyme inhibitory activity against various subtypes of HDAC enzymes by the FRET method. The various subtypes of HDAC enzymes were obtained either through purification or direct purchase of assay kits.
(§4) The specific method was as follows: The enzyme was added to a 384-well plate, and a reaction buffer was added to the control well. Serially diluted DMSO sample solutions were added to the reaction wells, and the plate was incubated at room temperature for 15 min. Then a chromogenic agent was added to stop the reaction, and fluorescence was generated. The fluorescence intensity was measured using an EnVision multi-label microplate reader (excitation: 355 nm, emission: 460 nm). The endpoint value was read after the color development reached stability. The inhibition IC50 of the compounds was calculated using GraphPad Prism4 software relative to DMSO.

HDAC2 = HDAC2 (Homo sapiens, UniProt Q92769); assay: HDAC enzyme inhibitory activity, FRET method; format: biochemical; details: read-out: IC50 HDAC2
Protocol: as §3, §4

HDAC3 = HDAC3 (Homo sapiens, UniProt O15379); assay: HDAC enzyme inhibitory activity, FRET method; format: biochemical; details: read-out: IC50 HDAC3
Chain of HDAC3 (O15379 whole entry, species assumed): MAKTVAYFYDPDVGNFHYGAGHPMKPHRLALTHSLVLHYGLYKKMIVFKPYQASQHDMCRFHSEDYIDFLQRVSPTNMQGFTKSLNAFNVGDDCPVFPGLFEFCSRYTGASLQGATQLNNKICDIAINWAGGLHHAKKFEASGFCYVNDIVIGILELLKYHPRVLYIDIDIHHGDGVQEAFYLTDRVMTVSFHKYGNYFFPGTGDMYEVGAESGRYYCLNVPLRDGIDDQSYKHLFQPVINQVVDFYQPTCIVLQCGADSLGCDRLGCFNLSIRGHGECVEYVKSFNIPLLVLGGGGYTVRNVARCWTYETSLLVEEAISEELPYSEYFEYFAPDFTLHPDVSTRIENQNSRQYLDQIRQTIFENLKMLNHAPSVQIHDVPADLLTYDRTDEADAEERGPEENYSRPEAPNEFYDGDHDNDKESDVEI
Chain of HDAC3 (Q9Y618 395-489 partner limits assumed, species assumed): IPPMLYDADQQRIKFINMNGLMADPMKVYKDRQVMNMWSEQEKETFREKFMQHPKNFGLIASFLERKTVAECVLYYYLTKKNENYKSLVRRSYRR
Protocol: as §3, §4

[1] = Stability in liver microsomes; format: in vitro ADME; details: for half-life at 1 µM: 1 µM compound, 37 °C, NADPH regeneration system
Protocol: After the 1 µM compound was individually incubated at 37 °C for various durations with […] liver microsomes from humans, monkeys, beagles, rats, or mice in the presence of an NADPH regeneration system, LC-MS-MS was used to analyze the remaining amount of the compound, and T1/2 was calculated. Table 10. Evaluation results of stability of compounds of the present disclosure in human and mouse liver microsomes

293T cell = assay: Inhibition of cell proliferation (CTG, intracellular ATP); format: cell-based; details: Homo sapiens, HEK-293T, 72 h
Protocol: (§1) Jurkat or 293T cells were seeded into a 96-well plate at 3000 cells/well. After overnight adherence culture, the serially diluted compound in DMSO was added. After 72 h, the intracellular ATP level was determined by CTG. The IC50 for the inhibition of cell proliferation by the compounds was calculated compared to the DMSO group. Table 7. Inhibitory activity of compounds of the present disclosure against Jurkat/293T cell proliferation (IC50, µM)

Jurkat cell = assay: as above; format: cell-based; details: Homo sapiens, Jurkat, 72 h
Protocol: as §1

Acetyl lysine = assay: Intracellular acetyl lysine level by ELISA in HeLa cells; format: cell-based; details: 24 h of treatment
Protocol: (§2) HeLa cells were seeded into a 96-well plate at 20000 cells/well. After overnight adherence culture, the serially diluted compound was added. After 24 h of treatment, intracellular levels of acetyl lysine and H3K 27 acetyl lysine were quantified by ELISA. Table 8. Effect of compound of the present disclosure on levels of acetyl lysine and H3K 27 acetyl lysine

H3K 27 Acetyl lysine = assay: Intracellular H3K 27 acetyl lysine level by ELISA in HeLa cells; format: cell-based; details: 24 h of treatment
Protocol: as §2

Chain of HDAC2 (Q92769 whole entry, species assumed): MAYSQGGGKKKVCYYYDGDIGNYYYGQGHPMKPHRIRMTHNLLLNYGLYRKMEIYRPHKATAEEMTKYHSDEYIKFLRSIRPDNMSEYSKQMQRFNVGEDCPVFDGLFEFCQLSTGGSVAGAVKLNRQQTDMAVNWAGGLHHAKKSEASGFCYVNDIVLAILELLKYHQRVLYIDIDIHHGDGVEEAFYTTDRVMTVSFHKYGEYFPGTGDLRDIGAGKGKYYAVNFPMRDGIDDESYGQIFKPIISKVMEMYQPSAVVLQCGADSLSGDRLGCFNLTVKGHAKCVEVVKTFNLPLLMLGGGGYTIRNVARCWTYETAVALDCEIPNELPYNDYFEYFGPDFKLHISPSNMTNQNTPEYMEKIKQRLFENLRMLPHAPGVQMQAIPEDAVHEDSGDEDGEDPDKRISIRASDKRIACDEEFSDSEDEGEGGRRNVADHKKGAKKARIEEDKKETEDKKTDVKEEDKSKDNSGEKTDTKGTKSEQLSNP
Chain of HDAC1 (Q13547 whole entry, species assumed): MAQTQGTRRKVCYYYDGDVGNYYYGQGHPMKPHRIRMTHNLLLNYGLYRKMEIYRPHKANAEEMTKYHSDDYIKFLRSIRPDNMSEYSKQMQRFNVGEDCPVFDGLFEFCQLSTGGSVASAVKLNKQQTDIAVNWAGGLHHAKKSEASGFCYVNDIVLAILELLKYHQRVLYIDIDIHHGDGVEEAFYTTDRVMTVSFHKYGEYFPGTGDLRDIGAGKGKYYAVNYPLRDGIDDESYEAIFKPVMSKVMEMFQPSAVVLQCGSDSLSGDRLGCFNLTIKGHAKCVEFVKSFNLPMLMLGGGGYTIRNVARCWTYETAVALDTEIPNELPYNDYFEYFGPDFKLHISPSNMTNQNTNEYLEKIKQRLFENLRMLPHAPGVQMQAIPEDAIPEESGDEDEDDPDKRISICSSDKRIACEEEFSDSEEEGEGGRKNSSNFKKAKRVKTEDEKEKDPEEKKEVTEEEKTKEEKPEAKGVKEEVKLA

pIC50 (HDAC1; Table 4) | pIC50 (HDAC1; Table 5) | pIC50 (HDAC2; Table 4) | pIC50 (HDAC2; Table 5) | pIC50 (HDAC3; Table 4) | pIC50 (HDAC3; Table 5) | Structure (SMILES) | other results
> 6.30 | > 7.52 | > 6.30 | 6.52 to 7.52 | < 5.30 | < 5.52 | CS(C)(=O)=Nc1ccc(C(=O)Nc2cc(-c3ccc(Cl)cc3)ccc2N)cc1 [Compound 3] | CLint scaled at 1 µM ([1]; Human liver microsomes): 1.85 mL/min/kg; Clliver ([1]; Human liver microsomes): 1.70 mL/min/kg; half-life at 1 µM ([1]; Human liver microsomes): 15.7 h; CLint scaled at 1 µM ([1]; Mouse liver microsomes): 17.8 mL/min/kg; Clliver ([1]; Mouse liver microsomes): 14.87 mL/min/kg; half-life at 1 µM ([1]; Mouse liver microsomes): 5.11 h
5.30 to 6.30 | – | 5.30 to 6.30 | – | < 5.30 | – | CP(C)(=O)c1ccc(-c2ccc(N)c(NC(=O)c3ccc(N=S(C)(C)=O)cc3)c2)cc1 [Compound 6] | –
– | > 7.52 | – | 6.52 to 7.52 | – | < 5.52 | CCS(=O)(CC)=Nc1ccc(C(=O)Nc2cc(-c3ccc(F)cc3)ccc2N)cc1 [Compound 59] | –
– | > 7.52 | – | 6.52 to 7.52 | – | < 5.52 | Nc1ccc(-c2ccc(F)cc2)cc1NC(=O)c1ccc(N=S2(=O)CCCC2)cc1 [Compound 57] | CLint scaled at 1 µM ([1]; Human liver microsomes): 7.51 mL/min/kg; Clliver ([1]; Human liver microsomes): 5.51 mL/min/kg; half-life at 1 µM ([1]; Human liver microsomes): 3.86 h; CLint scaled at 1 µM ([1]; Mouse liver microsomes): 33 mL/min/kg; Clliver ([1]; Mouse liver microsomes): 24.16 mL/min/kg; half-life at 1 µM ([1]; Mouse liver microsomes): 2.75 h
– | > 7.52 | – | 6.52 to 7.52 | – | < 5.52 | CN1CC2(C1)CS(=O)(=Nc1ccc(C(=O)Nc3cc(-c4ccc(F)cc4)ccc3N)cc1)C2 [Compound 56] | –
– | > 7.52 | – | 6.52 to 7.52 | – | < 5.52 | Nc1ccc(-c2ccc(F)cc2)cc1NC(=O)c1ccc(N=S2(=O)CCOCC2)cc1 [Compound 60] | –
> 6.30 | – | > 6.30 | – | < 5.30 | – | CS(C)(=O)=Nc1ccc(C(=O)Nc2cc(-c3ccc(C#N)cc3)ccc2N)cc1 [Compound 4] | –
> 6.30 | > 7.52 | > 6.30 | 6.52 to 7.52 | < 5.30 | < 5.52 | CN1CCS(=O)(=Nc2ccc(C(=O)Nc3cc(-c4ccc(F)cc4)ccc3N)cc2)CC1 [Compound 67] | pIC50 (293T cell): < 5.00; pIC50 (Jurkat cell): 6.52; Acetyl lysine Maximum (%) (Acetyl lysine): 570%; Acetyl lysine Minimum effective concentration (Acetyl lysine): 16 nM; H3K 27 Acetyl lysine Maximum (%) (H3K 27 Acetyl lysine): 300%; H3K 27 Acetyl lysine Minimum effective concentration (H3K 27 Acetyl lysine): 16 nM
> 6.30 | – | > 6.30 | – | < 5.30 | – | CS(C)(=O)=Nc1ccc(C(=O)Nc2cc(-c3ccccc3)ccc2N)cc1 [Compound 2] | –
> 6.30 | – | > 6.30 | – | < 5.30 | – | Nc1ccc(-c2cccs2)cc1NC(=O)c1ccc(N=S2(=O)CCCC2)cc1 [Compound 80] | –
> 6.30 | – | > 6.30 | – | < 5.30 | – | [2H]c1ccc(-c2ccc(N)c(NC(=O)c3ccc(N=S(C)(C)=O)cc3)c2)cc1 [Compound 12] | –
> 6.30 | – | > 6.30 | – | < 5.30 | – | CS(C)(=O)=Nc1ccc(C(=O)Nc2cc(-c3cncnc3)ccc2N)cc1 [Compound 17] | –
> 6.30 | – | > 6.30 | – | < 5.30 | – | CS(C)(=O)=Nc1ccc(C(=O)Nc2cc(-c3ccc(C(F)(F)F)cc3)ccc2N)cc1 [Compound 7] | –
> 6.30 | – | > 6.30 | – | < 5.30 | – | Nc1ccc(-c2ccc(F)s2)cc1NC(=O)c1ccc(N=S2(=O)CC3(CCC3)C2)cc1 [Compound 93] | –
> 6.30 | – | > 6.30 | – | < 5.30 | – | Nc1ccc(-c2ccc(F)s2)cc1NC(=O)c1ccc(N=S2(=O)CCC2)cc1 [Compound 92] | –
– | > 7.52 | – | 6.52 to 7.52 | – | < 5.52 | Nc1ccc(-c2ccc(F)cc2)cc1NC(=O)c1ccc(N=S2(=O)CC3(CNC3)C2)cc1 [Compound 55] | –

pIC50 (HDAC1; Table 4) | pIC50 (HDAC1; Table 5) | pIC50 (HDAC2; Table 4) | pIC50 (HDAC2; Table 5) | pIC50 (HDAC3; Table 4) | pIC50 (HDAC3; Table 5) | Structure (SMILES) | other results
> 6.30 | – | > 6.30 | – | < 5.30 | – | CS(C)(=O)=Nc1ccc(C(=O)Nc2cc(-c3cccnc3)ccc2N)cc1 [Compound 15] | –
> 6.30 | > 7.52 | > 6.30 | 6.52 to 7.52 | < 5.30 | < 5.52 | [2H]C([2H])([2H])N1CCS(=O)(=Nc2ccc(C(=O)Nc3cc(-c4ccc(F)cc4)ccc3N)cc2)CC1 [Compound 68] | –
– | > 7.52 | – | 6.52 to 7.52 | – | < 5.52 | CS(C)(=O)=Nc1ccc(C(=O)Nc2cc(-c3ccc(F)s3)ccc2N)cc1 [Compound 33] | CLint scaled at 1 µM ([1]; Human liver microsomes): 8.26 mL/min/kg; Clliver ([1]; Human liver microsomes): 5.91 mL/min/kg; half-life at 1 µM ([1]; Human liver microsomes): 3.51 h; CLint scaled at 1 µM ([1]; Mouse liver microsomes): 0.45 mL/min/kg; Clliver ([1]; Mouse liver microsomes): 0.45 mL/min/kg; half-life at 1 µM ([1]; Mouse liver microsomes): 201 h
> 6.30 | – | > 6.30 | – | < 5.30 | – | CS(C)(=O)=NC1CCC(C(=O)Nc2cc(-c3ccc(F)cc3)ccc2N)CC1 (stereo not drawn) [Compound 45] | –
– | > 7.52 | – | 6.52 to 7.52 | – | < 5.52 | Nc1ccc(-c2ccc(F)cc2)cc1NC(=O)c1ccc(N=S2(=O)CCCCC2)cc1 [Compound 58] | –
> 6.30 | – | 5.30 to 6.30 | – | < 5.30 | – | CS(C)(=O)=Nc1ccc(C(=O)Nc2cc(-c3ccc(F)cc3)ccc2O)cc1 [Compound 41] | –
> 6.30 | – | > 6.30 | – | < 5.30 | – | CS(C)(=O)=Nc1ccc(C(=O)Nc2cc(-c3ccc(F)cc3)c(F)cc2N)cc1 [Compound 43] | –
> 6.30 | – | > 6.30 | – | < 5.30 | – | CS(C)(=O)=Nc1ccc(C(=O)Nc2cc(-c3ccc(F)cc3F)ccc2N)cc1 [Compound 10] | –
> 6.30 | – | > 6.30 | – | < 5.30 | – | CS(C)(=O)=Nc1ccc(C(=O)Nc2cc(-c3ccncc3)ccc2N)cc1 [Compound 13] | –
> 6.30 | – | > 6.30 | – | < 5.30 | – | [2H]C([2H])([2H])N1CCS(=O)(=Nc2ccc(C(=O)Nc3cc(-c4cccs4)ccc3N)cc2)CC1 [Compound 90] | –
> 6.30 | – | > 6.30 | – | < 5.30 | – | CS(C)(=O)=Nc1ccc(C(=O)Nc2cc(-c3ccncn3)ccc2N)cc1 [Compound 16] | –
> 6.30 | – | > 6.30 | – | < 5.30 | – | CN1CCS(=O)(=Nc2ccc(C(=O)Nc3cc(-c4cccs4)ccc3N)cc2)CC1 [Compound 89] | –
> 6.30 | – | > 6.30 | – | < 5.30 | – | Nc1ccc(-c2ccc(F)s2)cc1NC(=O)c1ccc(N=S2(=O)CC3(CNC3)C2)cc1 [Compound 94] | –
> 6.30 | – | > 6.30 | – | < 5.30 | – | CS(C)(=O)=Nc1ccc(C(=O)Nc2cc(-c3ncccn3)ccc2N)cc1 [Compound 18] | –
> 6.30 | – | > 6.30 | – | < 5.30 | – | CN1CC2(C1)CS(=O)(=Nc1ccc(C(=O)Nc3cc(-c4ccc(F)s4)ccc3N)cc1)C2 [Compound 95] | –
